Data reported in US11793222B2, “Solutions and dispersions of amide compounds” (Firmenich SA, priority 2016, dated 2023).

Columns and labels:
[1] = Dissolution kinetics in water at 60° C., followed by UV/Vis spectroscopy (absorbance at 310 nm); type: physicochemical
Experimental: The dissolution process was followed on-line by monitoring the UV signal of dissolved (E)-3-(3,4-dimethoxyphenyl)-N-(4-methoxyphenethyl)acrylamide with UV/Vis spectroscopy (measuring absorbance at 310 nm). The dissolution process yielded 50% of the target concentration of 20 ppm of (E)-3-(3,4-dimethoxyphenyl)-N-(4-methoxyphenethyl)acrylamide (10 ppm) after 1.5 minutes, and 95% (19 ppm) after 17 minutes.
20 mg of (E)-3-(3,4-dimethoxyphenyl)-N-(4-methoxyphenethyl)acrylamide were dispersed in 1 L of water at 60° C. The dissolution process yielded 50% of the target concentration of 20 ppm (10 ppm) after 78 minutes (factor 50 slower compared to example 1). 95% (19 ppm) of the target concentration could not be achieved after 6 hours. The concentration of dissolved (E)-3-(3,4-dimethoxyphenyl)-N-(4-methoxyphenethyl)acrylamide after 6 hours was 15 ppm (75% of target).
1.8 g of (E)-3-(3,4-dimethoxyphenyl)-N-(4-methoxyphenethyl)acrylamide and 1.8 g betaine were mixed with 116 g of a mixture of ethanol and water (50:50 w/w). The dispersion was heated to 60° C. until complete dissolution of the solid material. The solution was kept at 60° C., spray dried, and a fine, white powder was obtained. […] The dissolution process yielded 50% of the target concentration of 20 ppm of (E)-3-(3,4-dimethoxyphenyl)-N-(4-methoxyphenethyl)acrylamide (10 ppm) after 2.5 minutes, and 95% (19 ppm) after 29 minutes.

trained panelists [2] = assay: Evaluation of the umami effect in hot chicken bouillon by trained panelists; type: in vivo; details: 20 ppm compound or 40 ppm solid dispersion (50:50 w/w), 4 trained panelists, blind, after 5 minutes
Experimental: (§1) The solutions were presented to 4 trained panelists on a blind test basis after 5 minutes. They were asked to rate the samples for the umami taste intensity from 0 to 10 (0 denoted no umami effect, and 10 denoted very strong umami taste). The sample according to the invention was rated higher in umami intensity (5.0) than the comparative sample (3.8).
The bouillons were presented to 4 trained panelists on a blind test basis after 5 minutes. The sample according to the invention was rated higher in umami intensity (6.5) than the comparative sample (5.5).

trained panelists [3] = assay: Evaluation of the umami effect in cold water by trained panelists; type: in vivo; details: cold water (room temperature); 20 ppm compound or 40 ppm solid dispersion (50:50 w/w); 4 trained panelists, blind, after 5 minutes
Experimental: as §1
The solutions were presented to 4 trained panelists on a blind test basis after 5 minutes. The sample according to the invention was rated higher in umami intensity (3.4) than the comparative sample (2.5).

trained panelists [4] = assay: Evaluation of the umami effect in hot water by trained panelists; type: in vivo; details: 20 ppm compound or 40 ppm solid dispersion (50:50 w/w), 4 trained panelists, blind, after 5 minutes
Experimental: as §1

COc1ccc(CCNC(=O)/C=C/c2ccc(OC)c(OC)c2)cc1 [(E)-3-(3,4-dimethoxyphenyl)-N-(4-methoxyphenethyl)acrylamide]
time until 95% (19 ppm) of the target concentration (could not be achieved) ([1]; 20 mg in 1 L of water at 60° C.): > 6 h | concentration of dissolved compound after 6 hours ([1]; 20 mg in 1 L of water at 60° C., after 6 hours): 15 ppm | dissolved compound after 6 hours as % of target ([1]; 20 mg in 1 L of water at 60° C., after 6 hours, target 20 ppm): 75% | time until dissolution yielded 50% of the target concentration of 20 ppm (10 ppm) ([1]; 1 L of water at 60° C., target 20 ppm of the amide): 78 min | factor slower compared to example 1 (time to 50% of target concentration) ([1]; water at 60° C.): 50 | umami intensity rating (trained panelists [2]): 5.5 | umami intensity rating (trained panelists [3]): 2.5 | umami taste intensity rating from 0 to 10 (trained panelists [4]): 3.8
